# Results: patent publication US20140256618A1, “Haprolid and Derivatives Thereof as Inhibitors of HCV” (Twincore Zentrum Fuer Experimentelle und Klinische …, priority 2011, published 2014)
# Assays:
# HCV RNA replication = assay: Subgenomic HCV replicon assay (influence on replication); type: cell-based, Hepatitis C virus; settings: subgenomic HCV replicon system, at non-toxic concentrations, FIG. 2
# Method: Haprolid has been identified as a potent inhibitor of HCV. Experiments confirmed its antiviral activity at nanomolar concentrations (EC50<6 nM) with toxicity in low micromolar ranges (TC50˜0.1 μM) (FIG. 1). […] Employing HCVTCP, influences on HCV RNA replication and virus entry are quantified.
# infectious HCV particles = assay: Influence on assembly and/or release of infectious HCV particles; type: cell-based, Hepatitis C virus
# Excerpt: (§1) Moreover, an influence of the compound on the steps leading to assembly and release of infectious HCV particles has been shown. Total production of infectious virus particles was reduced about 3-fold (FIG. 5c). […] However, this was not caused by an influence of the drug on lipoprotein secretion (ApoB/E, FIG. 6), on which HCV secretion strongly depends, nor a general influence on the secretory capacity of the cell as shown for albumin (FIG. 6).
# FIGS. 5a-c show the influence on assembly and/or release.
# [1] = test system: Huh7-Lunet-hCD81-Gluc cells; assay: Cell viability by G-Luc activity in the whole life cycle assay; settings: FIG. 1
# [2] = test system: retroviral particles pseudotyped with the glycoproteins of either HCV, VSV or MLV
# HCVTCP = assay: Preincubation experiment in the context of HCV TCP infection; type: cell-based, Hepatitis C virus; settings: HCVTCP system, FIG. 3
# HCV = assay: microbe, parasite or virus in culture; type: cell-based; settings: Hepatitis C virus, read-out: antiviral activity EC50
# [3] = test system: lipoprotein secretion (ApoB/E), albumin; assay: Secretion of lipoproteins (ApoB/E) or albumin; type: cell-based; settings: FIG. 6
# Excerpt: as §1
smiles,measurement,setting,value
COC(C)CCCC1CC/C(C)=C\CC(=O)NC(Cc2ccccc2)C(=O)N(C)CC(=O)N(C)C(CC(C)C)C(=O)N2CCCC2C(=O)O1 (stereo not drawn) [Haprolid],reduction of HCV RNA replication,HCV RNA replication,5 fold
same,reduction of intracellular virus titer,infectious HCV particles; FIG. 5a,100 fold
same,reduction of total production of infectious virus particles,infectious HCV particles; FIG. 5c,about 3 fold
same,toxicity TC50,[1],~100 nM
same,decrease of infectivity of pseudotyped retroviral particles,[2],100-1000 fold
same,effect of preincubation of cells or of virus compared with addition of compound during infection,HCVTCP,"only preincubation of the cells, but not of the virus resulted in a comparable effect"
same,EC50,HCV,< 6 nM
same,influence on secretion of albumin,[3],no influence
same,influence on secretion of lipoproteins (ApoB/E),[3],no influence
